# Measured values taken from patent US10988477B2 (Merck Patent GmbH, priority 2018, dated 2021).
# Like-named read-outs stand apart in the source and are kept apart here.
# Experiments:
# [1] = target: GCN2 kinase (Homo sapiens, UniProt Q9P2K8); test: GCN2 enzyme inhibition assay (Transcreener ADP2 fluorescence polarization); format: biochemical; conditions: 280 μM ATP
# Procedure, shortened: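 Kinase activity is followed as ADP formation, measured by fluorescence polarization, using 4 nM enzyme with 280 μM ATP and 200 μM (RS)7 peptide at pH 7.5 and 25 °C for 1 h. Values come from a non-linear tight-binding fit.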
# [2] = target: intracellular GCN2 (phosphorylation of the GCN2 substrate eIF2α) (Homo sapiens, UniProt Q9P2K8); test: GCN2 cellular inhibition assay (AlphaScreen SureFire P-eIF2α Ser51, borrelidin-treated U2OS cells); format: cell-based
# Sequence of intracellular GCN2 (phosphorylation of the GCN2 substrate eIF2α) (Q9P2K8 whole entry): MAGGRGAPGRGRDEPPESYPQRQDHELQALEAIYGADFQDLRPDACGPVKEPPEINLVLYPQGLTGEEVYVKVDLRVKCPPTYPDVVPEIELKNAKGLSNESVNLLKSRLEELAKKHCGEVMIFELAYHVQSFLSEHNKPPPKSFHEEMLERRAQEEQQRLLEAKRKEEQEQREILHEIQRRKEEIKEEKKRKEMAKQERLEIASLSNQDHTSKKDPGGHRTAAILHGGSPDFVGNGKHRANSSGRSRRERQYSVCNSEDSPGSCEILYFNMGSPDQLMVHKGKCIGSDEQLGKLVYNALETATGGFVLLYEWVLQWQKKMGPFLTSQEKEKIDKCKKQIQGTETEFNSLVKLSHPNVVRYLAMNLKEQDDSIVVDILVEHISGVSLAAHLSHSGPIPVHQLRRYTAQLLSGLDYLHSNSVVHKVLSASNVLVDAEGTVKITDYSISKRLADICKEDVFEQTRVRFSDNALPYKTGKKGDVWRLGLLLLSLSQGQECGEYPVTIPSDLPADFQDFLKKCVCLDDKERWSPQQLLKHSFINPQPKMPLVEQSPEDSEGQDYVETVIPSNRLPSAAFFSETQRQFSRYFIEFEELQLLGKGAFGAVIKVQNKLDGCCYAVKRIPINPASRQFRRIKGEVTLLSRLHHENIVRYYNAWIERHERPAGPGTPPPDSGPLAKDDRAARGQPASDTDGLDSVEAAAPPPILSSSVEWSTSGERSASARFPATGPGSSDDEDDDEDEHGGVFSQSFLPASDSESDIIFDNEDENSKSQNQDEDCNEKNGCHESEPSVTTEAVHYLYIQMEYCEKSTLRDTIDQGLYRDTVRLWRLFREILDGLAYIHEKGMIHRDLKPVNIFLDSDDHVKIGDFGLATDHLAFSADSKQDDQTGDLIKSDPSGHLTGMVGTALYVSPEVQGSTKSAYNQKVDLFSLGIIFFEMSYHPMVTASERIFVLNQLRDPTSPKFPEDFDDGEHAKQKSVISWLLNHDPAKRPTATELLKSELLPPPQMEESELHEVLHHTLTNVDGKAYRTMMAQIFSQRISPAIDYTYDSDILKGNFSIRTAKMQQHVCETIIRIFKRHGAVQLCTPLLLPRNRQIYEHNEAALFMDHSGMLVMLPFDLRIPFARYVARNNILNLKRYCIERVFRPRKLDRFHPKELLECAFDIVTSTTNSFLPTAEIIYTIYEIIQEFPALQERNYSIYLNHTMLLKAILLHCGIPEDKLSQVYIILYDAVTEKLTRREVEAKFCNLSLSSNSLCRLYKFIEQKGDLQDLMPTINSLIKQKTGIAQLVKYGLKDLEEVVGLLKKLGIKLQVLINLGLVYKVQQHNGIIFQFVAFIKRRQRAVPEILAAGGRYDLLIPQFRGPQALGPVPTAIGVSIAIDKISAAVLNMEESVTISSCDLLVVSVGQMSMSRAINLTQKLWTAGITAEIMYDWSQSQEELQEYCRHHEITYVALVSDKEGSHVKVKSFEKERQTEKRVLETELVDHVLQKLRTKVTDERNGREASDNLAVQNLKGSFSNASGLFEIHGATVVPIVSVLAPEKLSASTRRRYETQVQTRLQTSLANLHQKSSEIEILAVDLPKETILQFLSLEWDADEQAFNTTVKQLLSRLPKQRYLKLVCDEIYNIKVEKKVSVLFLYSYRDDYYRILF
# Procedure, shortened: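 Compound effect on GCN2 is gauged by eIF2α Ser51 phosphorylation in borrelidin-challenged U2OS cells (10 μM, 1 h). Top compound level is 40 μM final.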
# [3] = compounds of Formula IV, biomarker assay, phosphorylated eIF2α Ser51 in borrelidin-treated U2OS cells
# [4] = compounds of Formula II, 4 nM GCN2 kinase
# [5] = compounds of Formula II, biomarker assay, phosphorylated eIF2α Ser51 in borrelidin-treated U2OS cells
# [6] = Enzyme activity for compounds of Formula IV, Ki(app), 25° C.
# Sequence of GCN2 kinase (Q9P2K8 whole entry): as above
Structure (SMILES),"IC50 [2, 3] [nM]","Ki [1, 4] [nM]","IC50 [2, 5] [nM]","Ki [1, 6] [nM]",further results
"C[C@H]1C[C@H](c2c[nH]nc2F)CN(c2ccnc(-c3cnc4cnc(C(F)(F)F)cn34)n2)C1 [IV-764, 3-(4-((3R,5S)-3-(3-fluoro-1H-pyrazol-4-yl)-5-methylpiperidin-1-yl)pyrimidin-2-yl)-6-(trifluoromethyl)imidazo[1,2-a]pyrazine]",< 500,–,–,–,"IC50 ([1]; compounds of Formula IV, 4 nM GCN2 kinase): 10 to 1000 nM"
"O=C1NCC2CN(c3cc(-c4cnc5ccc(C(F)F)nn45)ccn3)CCN12 (stereo not shown) [II-175, 7-(4-(6-(Difluoromethyl)imidazo[1,2-b]pyridazin-3-yl)pyridin-2-yl)hexahydroimidazo[1,5-a]pyrazin-3(2H)-one]",–,10 to 1000,500 to 5000,–,–
"OCCC1CN(c2cc(-c3cnc4ccc(C(F)F)nn34)ccn2)CCO1 (stereo not shown) [II-146, 2-(4-(4-(6-(Difluoromethyl)imidazo[1,2-b]pyridazin-3-yl)pyridin-2-yl)morpholin-2-yl)ethanol]",–,10 to 1000,500 to 5000,–,–
"NC(=O)C1COCCN(c2ccnc(-c3cnc4cnc(C(F)F)cn34)n2)C1 (stereo not shown) [IV-117, 4-(2-(6-(Difluoromethyl)imidazo[1,2-a]pyrazin-3-yl)pyrimidin-4-yl)-1,4-oxazepane-6-carboxamide]",> 5000,–,–,100 to 1000,–
"O=S(=O)(NCC1CCCN(c2cc(-c3cnc4ccc(C(F)F)nn34)ncn2)C1)C1CC1 (stereo not shown) [II-262, N-((1-(6-(6-(Difluoromethyl)imidazo[1,2-b]pyridazin-3-yl)pyrimidin-4-yl)piperidin-3-yl)methyl)cyclopropanesulfonamide]",–,< 10,< 500,–,–
"CC1C(c2cn[nH]c2)NCCN1c1ccnc(-c2cnc3cnccn23)n1 (stereo not shown) [IV-397, 3-(4-(2-Methyl-3-(1H-pyrazol-4-yl)piperazin-1-yl)pyrimidin-2-yl)imidazo[1,2-a]pyrazine]",> 5000,–,–,100 to 1000,–
"CC1C(C(N)=O)CCN1c1ccnc(-c2cnc3cnc(C(F)(F)F)cn23)n1 (single isomer, unassigned) [IV-614, 2-Methyl-1-(2-(6-(trifluoromethyl)imidazo[1,2-a]pyrazin-3-yl)pyrimidin-4-yl)pyrrolidine-3-carboxamide]",> 5000,–,–,100 to 1000,–
"CC1C(CNS(C)(=O)=O)CC(F)(F)CN1c1cc(-c2cnc3ccc(C(F)F)nn23)ncn1 (single isomer, unassigned) [II-360, N-((1-(6-(6-(Difluoromethyl)imidazo[1,2-b]pyridazin-3-yl)pyrimidin-4-yl)-5,5-difluoro-2-methylpiperidin-3-yl)methyl)methanesulfonamide]",–,10 to 1000,500 to 5000,–,–
"CS(=O)(=O)NC[C@H]1CCCN(c2cc(-c3cnc4ccc(C(F)F)nn34)cc(O)n2)C1 [II-111, (S)—N-((1-(4-(6-(Difluoromethyl)imidazo[1,2-b]pyridazin-3-yl)-6-oxo-1,6-dihydropyridin-2-yl)piperidin-3-yl)methyl)methanesulfonamide]",–,< 10,500 to 5000,–,–
"FC(F)c1cn2c(-c3nccc(N4CCC(c5ccncc5)C4)n3)cnc2cn1 (stereo not shown) [IV-68, 6-(Difluoromethyl)-3-(4-(3-(pyridin-4-yl)pyrrolidin-1-yl)pyrimidin-2-yl)imidazo[1,2-a]pyrazine]",> 5000,–,–,100 to 1000,–
"Cc1nn(C)cc1[C@@H]1CN(c2cc(-c3cnc4ccc(C(F)(F)F)nn34)ncn2)C[C@H](C)O1 [II-759, (2R,6S)-2-(1,3-dimethyl-1H-pyrazol-4-yl)-6-methyl-4-(6-(6-(trifluoromethyl)imidazo[1,2-b]pyridazin-3-yl)pyrimidin-4-yl)morpholine]",–,–,> 5000,–,"IC50 [1, 4]: 10 to 1000 nM"
"CC1C(CS(C)(=N)=O)OCCN1c1cc(-c2cnc3ccc(C(F)F)nn23)ncn1 (stereo not shown) [II-425, ((4-(6-(6-(Difluoromethyl)imidazo[1,2-b]pyridazin-3-yl)pyrimidin-4-yl)-3-methylmorpholin-2-yl)methyl)(imino)(methyl)-λ^6-sulfanone]",–,10 to 1000,500 to 5000,–,–
"CS(=O)(=O)N1CCCC(c2cc(-c3cnc4ccc(C(F)F)nn34)ncn2)C1 (stereo not shown) [II-21, 6-(Difluoromethyl)-3-(6-(1-(methylsulfonyl)piperidin-3-yl)pyrimidin-4-yl)imidazo[1,2-b]pyridazine]",–,10 to 1000,> 5000,–,–
"CC1CN(c2ccnc(-c3cnc4cnc(Cl)cn34)n2)CC(c2cn[nH]c2)O1 (single isomer, unassigned) [IV-217, 4-(2-(6-Chloroimidazo[1,2-a]pyrazin-3-yl)pyrimidin-4-yl)-2-methyl-6-(1H-pyrazol-4-yl)morpholine]",< 500,–,–,< 10,–
"CC1CN(c2ccnc(-c3cnc4cnc(C(F)(F)F)cn34)n2)C(C)C(c2cn[nH]c2)O1 (stereo not shown) [IV-415, 3,6-Dimethyl-2-(1H-pyrazol-4-yl)-4-(2-(6-(trifluoromethyl)imidazo[1,2-a]pyrazin-3-yl)pyrimidin-4-yl)morpholine]",< 500,–,–,< 10,–
"NC(=O)C1CCN(c2cc(-c3cnc4ccc(C(F)F)nn34)ncn2)C1 (stereo not shown) [II-399, 1-(6-(6-(Difluoromethyl)imidazo[1,2-b]pyridazin-3-yl)pyrimidin-4-yl)pyrrolidine-3-carboxamide]",–,10 to 1000,> 5000,–,–
"CC1C(c2cn[nH]c2)NCCN1c1ccnc(-c2cnc3cnc(Br)cn23)n1 (single isomer, unassigned) [IV-351, 6-Bromo-3-(4-(2-methyl-3-(1H-pyrazol-4-yl)piperazin-1-yl)pyrimidin-2-yl)imidazo[1,2-a]pyrazine]",< 500,–,–,< 10,–
"CC1NC(c2cn[nH]c2)C(C)N(c2ccnc(-c3cnc4cnc(C(F)(F)F)cn34)n2)C1C (stereo not shown) [IV-323, 6-(Trifluoromethyl)-3-(4-(2,3,6-trimethyl-5-(1H-pyrazol-4-yl)piperazin-1-yl)pyrimidin-2-yl)imidazo[1,2-a]pyrazine]",500 to 5000,–,–,< 10,–
"CC1C(CNS(C)(=O)=O)C(C)(O)C(C)CN1c1cc(-c2cnc3ccc(C(F)F)nn23)ncn1 (stereo not shown) [II-618, N-((1-(6-(6-(Difluoromethyl)imidazo[1,2-b]pyridazin-3-yl)pyrimidin-4-yl)-4-hydroxy-2,4,5-trimethylpiperidin-3-yl)methyl)methanesulfonamide]",–,< 10,< 500,–,–
"OC1(c2cn[nH]c2)CCCN(c2ccnc(-c3cnc4cnc(C(F)(F)F)cn34)n2)C1 (stereo not shown) [IV-386, 3-(1H-Pyrazol-4-yl)-1-(2-(6-(trifluoromethyl)imidazo[1,2-a]pyrazin-3-yl)pyrimidin-4-yl)piperidin-3-ol]",500 to 5000,–,–,10 to 100,–
"CC1CN(c2cc(-c3cnn4ccc(C(F)F)nc34)ccn2)CC(CNS(C)(=O)=O)C1(F)F (stereo not shown) [III-7, N-[[1-[4-[5-(Difluoromethyl)pyrazolo[1,5-a]pyrimidin-3-yl]-2-pyridyl]-4,4-difluoro-5-methyl-3-piperidyl]methyl]methanesulfonamide]",–,–,–,–,"Ki ([1]; compounds of Formula III, 4 nM GCN2 kinase): < 10 nM; IC50 ([2]; compounds of Formula III, U2OS cells, 10 μM borrelidin, 1 h, read-out: GCN2 Biomarker (IC50)): 500 to 5000 nM"
"COc1cc(N2CC(C)NC(c3cn[nH]c3)C2C)nc(-c2cnc3cnc(C(F)(F)F)cn23)n1 (stereo not shown) [IV-593, 3-(4-(2,5-Dimethyl-3-(1H-pyrazol-4-yl)piperazin-1-yl)-6-methoxypyrimidin-2-yl)-6-(trifluoromethyl)imidazo[1,2-a]pyrazine]",500 to 5000,–,–,< 10,–
"CS(=O)(=O)NCC1CN(c2cc(-c3cnc4ccc(C(F)F)nn34)ncn2)CC(F)(F)C1 (stereo not shown) [II-258, N-((1-(6-(6-(Difluoromethyl)imidazo[1,2-b]pyridazin-3-yl)pyrimidin-4-yl)-5,5-difluoropiperidin-3-yl)methyl)methanesulfonamide]",–,< 10,< 500,–,–
